Source: ChEMBL document CHEMBL1908105, “UDP-glucuronosyltransferases and clinical drug-drug interactions” (Pharmacol Ther, 2005)

Legend:
[1] = target: T1, UDP-glucuronosyltransferase 1A1 (Homo sapiens, UniProt P22309); experiment: Drug glucuronidation reaction catalyzed by human recombinant UGT1A1
T1 sequence (P22309 whole entry): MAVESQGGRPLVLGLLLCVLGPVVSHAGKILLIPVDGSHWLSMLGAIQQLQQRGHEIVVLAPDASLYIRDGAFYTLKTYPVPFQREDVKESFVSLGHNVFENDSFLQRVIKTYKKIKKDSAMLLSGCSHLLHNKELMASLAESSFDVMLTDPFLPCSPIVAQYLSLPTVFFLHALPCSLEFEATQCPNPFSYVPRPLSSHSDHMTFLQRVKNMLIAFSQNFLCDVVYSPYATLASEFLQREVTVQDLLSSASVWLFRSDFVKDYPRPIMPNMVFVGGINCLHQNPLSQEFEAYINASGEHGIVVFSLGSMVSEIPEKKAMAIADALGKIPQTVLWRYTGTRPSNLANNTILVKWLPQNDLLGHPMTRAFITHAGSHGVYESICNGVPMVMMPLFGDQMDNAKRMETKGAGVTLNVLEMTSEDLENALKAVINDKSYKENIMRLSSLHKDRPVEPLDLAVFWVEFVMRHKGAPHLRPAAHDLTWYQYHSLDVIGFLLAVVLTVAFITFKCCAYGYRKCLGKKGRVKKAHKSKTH

[2] = target: UDP-glucuronosyltransferase 2B15 (Homo sapiens, UniProt P54855); experiment: Drug glucuronidation reaction catalyzed by human recombinant UGT2B15
Sequence of UDP-glucuronosyltransferase 2B15 (P54855 whole entry): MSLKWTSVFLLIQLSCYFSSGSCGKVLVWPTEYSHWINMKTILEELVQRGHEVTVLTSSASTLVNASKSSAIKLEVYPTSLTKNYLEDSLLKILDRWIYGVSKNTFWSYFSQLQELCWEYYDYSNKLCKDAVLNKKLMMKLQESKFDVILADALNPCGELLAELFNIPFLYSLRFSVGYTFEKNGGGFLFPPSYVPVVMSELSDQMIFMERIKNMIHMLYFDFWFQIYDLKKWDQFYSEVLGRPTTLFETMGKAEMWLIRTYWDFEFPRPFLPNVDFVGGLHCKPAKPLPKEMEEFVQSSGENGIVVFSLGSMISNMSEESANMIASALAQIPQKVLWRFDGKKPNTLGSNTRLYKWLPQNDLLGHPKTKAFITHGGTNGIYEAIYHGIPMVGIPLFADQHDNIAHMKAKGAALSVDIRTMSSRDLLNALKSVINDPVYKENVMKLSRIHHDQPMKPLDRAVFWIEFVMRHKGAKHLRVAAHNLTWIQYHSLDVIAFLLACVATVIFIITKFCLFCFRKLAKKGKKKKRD

[3] = target: T2, UDP-glucuronosyltransferase 1A4 (Homo sapiens, UniProt P22310); experiment: Drug glucuronidation reaction catalyzed by human recombinant UGT1A4
T2 sequence (P22310 whole entry): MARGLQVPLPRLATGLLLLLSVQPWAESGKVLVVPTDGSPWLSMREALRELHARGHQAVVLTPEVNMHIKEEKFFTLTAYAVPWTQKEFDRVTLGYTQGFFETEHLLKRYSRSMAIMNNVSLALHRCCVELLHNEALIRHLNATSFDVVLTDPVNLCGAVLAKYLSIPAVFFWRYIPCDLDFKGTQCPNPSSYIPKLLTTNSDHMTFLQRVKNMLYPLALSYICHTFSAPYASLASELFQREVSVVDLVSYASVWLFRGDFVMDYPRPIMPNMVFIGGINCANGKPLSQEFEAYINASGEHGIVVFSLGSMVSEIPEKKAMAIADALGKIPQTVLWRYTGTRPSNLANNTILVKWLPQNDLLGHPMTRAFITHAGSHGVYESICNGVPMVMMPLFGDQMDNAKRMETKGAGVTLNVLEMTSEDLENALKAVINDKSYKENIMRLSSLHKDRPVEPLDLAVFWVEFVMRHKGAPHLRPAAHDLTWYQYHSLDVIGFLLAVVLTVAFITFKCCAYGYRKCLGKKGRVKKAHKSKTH

[4] = target: T3, UDP-glucuronosyltransferase 1A9 (Homo sapiens, UniProt O60656); experiment: Drug glucuronidation reaction catalyzed by human recombinant UGT1A9
T3 sequence (O60656 whole entry): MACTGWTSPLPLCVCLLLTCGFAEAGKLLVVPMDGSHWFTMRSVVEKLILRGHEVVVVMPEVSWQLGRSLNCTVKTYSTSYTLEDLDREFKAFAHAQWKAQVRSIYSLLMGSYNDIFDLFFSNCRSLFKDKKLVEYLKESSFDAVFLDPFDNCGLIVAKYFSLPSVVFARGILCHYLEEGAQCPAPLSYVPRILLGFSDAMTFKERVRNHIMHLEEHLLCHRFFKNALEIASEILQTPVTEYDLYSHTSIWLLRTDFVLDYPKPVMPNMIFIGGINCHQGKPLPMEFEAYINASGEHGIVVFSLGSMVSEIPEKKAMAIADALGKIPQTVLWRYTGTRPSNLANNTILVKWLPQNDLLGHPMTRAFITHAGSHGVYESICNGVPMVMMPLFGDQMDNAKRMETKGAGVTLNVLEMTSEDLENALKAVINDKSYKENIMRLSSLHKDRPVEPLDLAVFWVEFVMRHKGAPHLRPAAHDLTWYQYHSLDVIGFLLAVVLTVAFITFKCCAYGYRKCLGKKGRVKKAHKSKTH

[5] = Inhibition of AZT (0.02 mM) glucuronidation by human UGT enzymes from liver microsomes; set-up: species or system Microsome

| Structure (SMILES) | Vmax [1] | Vmax [2] | Vmax [3] | Vmax [4] | IC50 [5] |
| --- | --- | --- | --- | --- | --- |
| CC(O)/C(=C(\c1ccccc1)c1ccc(OCCN(C)C)cc1)c1ccccc1 (stereo in doubt; trans) | 166 pmol/min/mg protein | 70 pmol/min/mg protein | 547 pmol/min/mg protein | 72 pmol/min/mg protein | – |
| OC(Cn1cncn1)(Cn1cncn1)c1ccc(F)cc1F [FLUCONAZOLE] | – | – | – | – | 163 µM |
| CC(O)/C(=C(\c1ccccc1)c1ccc(OCCN(C)C)cc1)c1ccccc1 (stereo in doubt; cis) | 291 pmol/min/mg protein | 720 pmol/min/mg protein | 315 pmol/min/mg protein | 57 pmol/min/mg protein | – |
